Laboratory results from patent US20250352590A1, “Functional postbiotic composition for homeostatic vaginal care” (Seed Health Inc., priority 2024, published 2025).

What was measured:
[1] = test system: EpiVaginal (VEC-100) 3-D tissues; test: Barrier integrity by transepithelial electrical resistance (TEER) in EpiVaginal tissues; type: cell-based; details: 24 hr exposure; for TEER avg. (% of VC): tissues in triplicate, normalized to average TEER of vehicle control VC
Experimental: (§1) EpiVaginal (VEC-100) 3-D tissues, produced by MatTek Corporation, were used to evaluate eight test conditions plus a positive control known to have negative effects on tissue viability and barrier function (nonoxynol-9); the conditions tested are given in Table 3 below. Barrier integrity was measured at baseline, and tissues were treated in triplicate with test articles for 24 hours. Three tissues were left untreated to serve as negative control (NC); three tissues were treated with 4% nonoxynol-9 to serve as positive control (PC); and three tissues were dosed with media to serve as vehicle control (VC). At the end of 24 hr exposure to the test articles, barrier integrity was measured using transepithelial electrical resistance (TEER) and two tissues were used to assess tissue viability with the MTT assay. From each treatment group, one tissue was fixed in 10% formalin and processed for H&E staining for histological analysis.
Throughout this Example and Example 8 below, “VS-01” refers to a consortium of three Lactobacillus crispatus strains: LUCA011 (ATCC Accession Deposit No. PTA-127214) at a concentration of 3.70·10^10 CFU/g, LUCA009 (ATCC Accession Deposit No. PTA-127213) at a concentration of 8.60·10^9 CFU/g, and LUCA103 (ATCC Accession Deposit No. PTA-127218) at a concentration of 2.50·10^10 CFU/g. A stock of 10^6 CFU/mL of the combined strains was used for testing. A comparator strain, L. crispatus ATCC 33197, was sourced from the American Type Culture Collection, and it was determined by bioinformatic analysis that the genome of this strain had between 99.0% and 99.2% average nucleotide identity (ANI) with each of the three VS-01 strains.
The concentration of VS-01 most relevant to in vivo exposure in the VEC-100 model (10^6 CFU/mL) was determined using two different approaches: (1) Comparison of the exposure per unit area of vaginal surface area between VS-01 in vivo and VS-01 in the VEC-100 model. As known from the literature, the average surface area of the human vagina ranges from 65.73 to 107.07 cm^2 with a mean of 87.46 cm^2 and a standard deviation of 7.80 cm^2. If an 850 mg tablet as described in Example 3 instantaneously dissolved, the estimated coverage would be 9.7 mg/cm^2 (850 mg/87.46 cm^2). This most closely corresponds to a 1:100 dilution of the tablet and can be considered an upper bound, given that the tablet dissolves slowly over a 24-hour period. (2)
Comparison of the ratio of L. crispatus cells to vaginal epithelial cells in vivo and in the VEC-100 model. […] The Mattek model contains between about 350,000 and about 500,000 cells at a depth of three to five layers. If 100,000 epithelial cells are exposed at the surface, exposure to 10^6 bacterial cells produces a reasonable estimate of a 10:1 bacterial cell/epithelial cell ratio.
An estimate of the concentration of D-lactate most relevant to in vivo exposure was obtained considering tablet dissolution kinetics. Tablets as described in Example 3 are slow-release formulations, dissolving over the course of […]. The volume of cervicovaginal fluid (CVF) present in the vagina is variable, ranging from about 1 mL to about 4 mL, with a discharge rate of about 2 mL to about 5 mL over 24 hours; thus, the dissolution rate of a tablet as described in Example 3 would be about 71 mg/hour. D-lactate concentrations of tablets as described in Example 3 range from about 34 mg/tablet to about 44 mg/tablet. Estimating that 8.4% of an 850 mg tablet dissolves per hour (71 mg/hour divided by 850 mg/tablet) gives an estimated in vivo D-lactate concentration range of 31.7 mM to 40.44 mM D-lactate. Therefore, testing 10 mM and 100 mM D-lactate in this Example covers the physiological range of estimated exposure given the expected variability in the exact concentration of D-lactate per tablet. […]

[2] = test system: EpiVaginal (VEC-100) 3-D tissues; test: Tissue viability by MTT assay in EpiVaginal tissues; type: cell-based; details: 24 hr exposure
Experimental: as §1

Molecule	Barrier integrity / TEER, result in words [1]	TEER avg. (% of VC) [1]	TEER vs NC ([1]; relative to untreated negative control NC)	TEER vs VC ([1]; relative to vehicle control VC)	Cytotoxicity / tissue viability (MTT), result in words [2]
C[C@@H](O)C(=O)O [D-lactate]	did not result in significant improvements in TEER over VC				
C[C@@H](O)C(=O)O [TA6, D-lactate]		128.4 % of VC			
C[C@@H](O)C(=O)O [TA7, D-lactate]		114.8 % of VC			
nonoxynol-9 [PC]	barrier disruption	0.6 % of VC	0.2%	0.6%	severe cytotoxicity
